IC50, Clblood and Fmax data for 18 molecules are collected here from US11427553B2, “Dihydrooxadiazinones” (Bayer Aktiengesellschaft, priority 2017, dated 2022).

One data set has as its system IGR37 cells. Kind of data set: Assay 1 cell proliferation measurement (CTG, 72 h), IGR37. The class given is cell-based. To be noted: Homo sapiens, IGR-37, Cell Titer Glo, read-out: IGR37 IC50 [nM] (melanoma).
For a further data set, the system named is SK-MEL-3 cells. Kind of data set: Assay 1 cell proliferation measurement (CTG, 72 h), SK-MEL-3. It is filed as cell-based, human. The following applies: Homo sapiens, SK-MEL3; Assay 1, 72 h, Cell Titer Glo; read-out: SK-MEL-3 IC50 [nM] (melanoma). The method, boiled down:
(§1)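 Cells were plated, grown overnight at 37 °C, then treated 72 h with a 10-step 2.5-fold dilution series from 100 nM maximum final (0.3% DMSO vehicle). Viability was read by CellTiter-Glo luminescence. IC50 from a 4-parameter fit, normalised to a 0 h plate (maximum inhibition) and DMSO control (minimum inhibition).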

The target in another data set is human full length PDE3B (Homo sapiens (Human), UniProt Q13370). Kind of data set: Assay 5 PDE3B enzyme inhibition (3H-cAMP SPA). It is filed as biochemical. To be noted: Sf9 cell extract. The method, boiled down:
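Hydrolysis of tritiated cAMP by Sf9-expressed full-length human PDE3B proceeded 60 min at room temperature in Tris buffer pH 7.5 containing Mg2+, EDTA and BSA, with enzyme dilution keeping substrate consumption below 70%. IC50 derived from percent activity versus log compound concentration.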

In another data set the target is human full length PDE3A (Homo sapiens (Human), UniProt Q14432). Kind of data set: Assay 4 PDE3A enzyme inhibition (3H-cAMP SPA). It is filed as biochemical. The following applies: Sf9 cell extract. In outline: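 Hydrolysis of [8-3H]cAMP by Sf9-expressed full-length PDE3A was measured by scintillation proximity, with enzyme diluted to keep kinetics linear and substrate consumption below 70%. Incubation ran 60 min at room temperature at pH 7.5.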
human full length PDE3A, sequence (Q14432 whole entry): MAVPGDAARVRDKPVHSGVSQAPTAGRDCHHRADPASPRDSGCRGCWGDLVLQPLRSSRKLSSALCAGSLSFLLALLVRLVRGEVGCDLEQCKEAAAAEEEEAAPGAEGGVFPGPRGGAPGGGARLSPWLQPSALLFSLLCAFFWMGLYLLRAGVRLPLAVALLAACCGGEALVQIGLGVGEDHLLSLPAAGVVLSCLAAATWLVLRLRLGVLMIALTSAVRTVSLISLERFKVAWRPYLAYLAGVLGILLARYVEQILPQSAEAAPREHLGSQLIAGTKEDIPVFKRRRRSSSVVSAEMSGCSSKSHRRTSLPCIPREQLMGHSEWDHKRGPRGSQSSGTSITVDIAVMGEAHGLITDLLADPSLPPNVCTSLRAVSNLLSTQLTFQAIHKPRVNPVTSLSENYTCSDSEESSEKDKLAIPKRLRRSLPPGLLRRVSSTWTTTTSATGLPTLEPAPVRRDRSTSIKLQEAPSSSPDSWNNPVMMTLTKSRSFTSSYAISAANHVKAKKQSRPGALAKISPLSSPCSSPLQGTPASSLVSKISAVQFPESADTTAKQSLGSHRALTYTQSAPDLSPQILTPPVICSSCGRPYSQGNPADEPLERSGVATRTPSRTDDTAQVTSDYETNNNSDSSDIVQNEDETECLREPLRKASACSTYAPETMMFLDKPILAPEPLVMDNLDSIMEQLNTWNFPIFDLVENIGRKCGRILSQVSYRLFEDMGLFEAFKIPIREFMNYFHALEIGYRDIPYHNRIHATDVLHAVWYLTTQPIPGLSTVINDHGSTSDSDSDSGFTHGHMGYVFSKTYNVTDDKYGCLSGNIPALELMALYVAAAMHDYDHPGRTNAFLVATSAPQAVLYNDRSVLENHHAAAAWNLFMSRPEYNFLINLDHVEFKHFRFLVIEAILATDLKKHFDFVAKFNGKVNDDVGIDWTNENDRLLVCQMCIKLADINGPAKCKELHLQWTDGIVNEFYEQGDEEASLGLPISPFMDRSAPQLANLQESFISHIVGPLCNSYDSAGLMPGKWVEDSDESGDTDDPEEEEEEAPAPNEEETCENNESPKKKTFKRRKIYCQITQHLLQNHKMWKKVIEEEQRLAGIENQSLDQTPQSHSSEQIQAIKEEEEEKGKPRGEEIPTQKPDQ

The subject of a further data set is HeLa cells. The data set is described as follows: Assay 1 cell proliferation measurement (CTG, 72 h), HeLa. It is filed as cell-based, human. To be noted: Homo sapiens, HeLa; Assay 1, 72 h, Cell Titer Glo; read-out: HeLa IC50 [nM] (Cervical cancer). The method, boiled down: as §1
The nature of data set [1]: Assay 6 in vitro metabolic stability in cryopreserved human hepatocytes (CL, Fmax). It is filed as in vitro ADME. The following applies: 1 μM test compound; for Clblood: hepatic in vivo blood clearance calculated (well-stirred) from half-life in cryopreserved human hepatocytes; for Fmax: maximal oral bioavailability calculated from half-life in cryopreserved human hepatocytes. How it is done: Assay 6 Method for Human Cryo Hepatocytes:
Investigation of In Vitro Metabolic Stability in Cryopreserved Human Hepatocytes (Including Calculation of Hepatic In Vivo Blood Clearance (CL) and Maximal Oral Bioavailability (Fmax))
Cryopreserved Hepatocytes (e.g. purchased from Celsis InVitroTechnologies) were briefly thawed, washed with 45 mL pre-warmed in in vitro GRO HT medium and centrifuged for 5 min at 50×g. The cell pellet was resuspended in 5 ml of Krebs-Henseleit […] (KHB). Cell viability was determined by trypan blue exclusion.
For the metabolic stability assay liver cells were distributed in WME containing 5% FCS to glass vials at a density of 1.0×10^6 vital cells/ml. The test compound was added to a final concentration of 1 μM. During incubation, the hepatocyte suspensions were continuously shaken at 580 rpm and aliquots were taken at 2, 8, 16, 30, 45 and 90 min, to which equal volumes of cold methanol were immediately added. Samples were frozen at −20° C. over night, after subsequently centrifuged for 15 minutes at 3000 rpm and the supernatant was analyzed with an Agilent 1290 HPLC-system with LCMS/MS detection.
The half-life of a test compound was determined from the concentration-time plot. From the half-life the intrinsic clearances were calculated. Together with the additional parameters liver blood flow, amount of liver cells in vivo and in vitro. The hepatic in vivo blood clearance (CL) and the maximal oral bioavailability (Fmax) was calculated.

human full length PDE3B, sequence (Q13370 whole entry): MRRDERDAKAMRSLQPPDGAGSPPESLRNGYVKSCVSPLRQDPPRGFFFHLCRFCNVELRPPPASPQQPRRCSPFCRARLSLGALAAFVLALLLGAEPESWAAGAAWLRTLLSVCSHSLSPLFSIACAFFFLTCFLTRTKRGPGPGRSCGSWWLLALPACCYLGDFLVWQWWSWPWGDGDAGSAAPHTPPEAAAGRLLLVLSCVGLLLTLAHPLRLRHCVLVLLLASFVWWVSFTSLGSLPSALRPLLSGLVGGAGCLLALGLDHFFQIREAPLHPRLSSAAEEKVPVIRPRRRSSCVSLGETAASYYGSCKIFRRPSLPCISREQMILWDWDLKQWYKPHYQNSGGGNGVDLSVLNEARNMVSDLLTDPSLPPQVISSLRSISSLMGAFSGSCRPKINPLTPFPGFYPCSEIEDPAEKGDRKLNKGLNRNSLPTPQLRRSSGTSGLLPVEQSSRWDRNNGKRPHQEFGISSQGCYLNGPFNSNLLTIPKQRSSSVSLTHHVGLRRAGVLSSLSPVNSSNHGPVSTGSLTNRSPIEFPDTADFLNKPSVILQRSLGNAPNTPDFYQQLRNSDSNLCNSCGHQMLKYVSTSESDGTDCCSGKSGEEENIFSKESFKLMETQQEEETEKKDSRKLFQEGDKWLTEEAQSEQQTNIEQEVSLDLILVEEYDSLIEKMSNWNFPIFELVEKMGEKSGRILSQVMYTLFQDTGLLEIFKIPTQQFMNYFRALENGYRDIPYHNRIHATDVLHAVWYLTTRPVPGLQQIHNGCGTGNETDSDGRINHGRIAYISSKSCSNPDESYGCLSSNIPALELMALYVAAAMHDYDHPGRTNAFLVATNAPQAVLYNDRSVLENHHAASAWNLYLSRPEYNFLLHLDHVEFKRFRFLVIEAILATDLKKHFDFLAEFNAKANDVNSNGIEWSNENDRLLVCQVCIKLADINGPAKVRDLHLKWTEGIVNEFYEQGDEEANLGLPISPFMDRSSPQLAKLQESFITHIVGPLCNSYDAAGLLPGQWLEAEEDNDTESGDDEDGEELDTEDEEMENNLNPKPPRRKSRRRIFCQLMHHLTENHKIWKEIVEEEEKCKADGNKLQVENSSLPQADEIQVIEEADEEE

For the molecule `CC1OC(=O)NN=C1c1ccc(N2CCOCC2)c(C(F)(F)F)c1` (racemic) [Example 126, (rac)-6-Methyl-5-(4-morpholino-3-(trifluoromethyl)phenyl)-3,6-dihydro-2H-1,3,4-oxadiazin-2-one], the half-maximal inhibitory concentration (IC50) in the data set on IGR37 cells was 2 nM; in the data set with SK-MEL-3 cells, 1 nM; on human full length PDE3B, 8 nM; against human full length PDE3A, 12 nM; in the data set with HeLa cells it was 1 nM.
As to `CC1OC(=O)NN=C1c1ccc(-c2cnn(C(F)F)c2)c(C(F)(F)F)c1` (racemic) [Example 191, (rac)-5-{4-[1-(Difluoromethyl)-1H-pyrazol-4-yl]-3-(trifluoromethyl)phenyl}-6-methyl-3,6-dihydro-2H-1,3,4-oxadiazin-2-one], the IC50 came to 1 nM in the data set on IGR37 cells; 1 nM with SK-MEL-3 cells; 57 nM against human full length PDE3B; 48 nM at human full length PDE3A; 0.4 nM in the data set on HeLa cells.
Consider `CC1OC(=O)NN=C1c1ccc(-c2ccc(F)cc2)c(C(F)(F)F)c1` (racemic) [Example 192, (rac)-5-[4′-Fluoro-2-(trifluoromethyl)[1,1′-biphenyl]-4-yl]-6-methyl-3,6-dihydro-2H-1,3,4-oxadiazin-2-one], for which the IC50 in the data set on IGR37 cells was 7 nM; with SK-MEL-3 cells it was 6 nM; against human full length PDE3B it was 120 nM; against human full length PDE3A, 320 nM; in the data set with HeLa cells, 2 nM.
The corresponding values for `CC(Nc1ccc(C2=NNC(=O)OC2)cc1C(F)(F)F)C1CC1` (racemic) [Example 240, (rac)-5-{4-[(1-cyclopropylethyl)amino]-3-(trifluoromethyl)phenyl}-3,6-dihydro-2H-1,3,4-oxadiazin-2-one] are 10 nM, 12 nM, 260 nM, 180 nM and 3 nM.
On to `O=C1NN=C(c2ccc(-c3ccc(F)cc3)c(OC(F)(F)F)c2)CO1` [Example 76, 5-[4′-Fluoro-2-(trifluoromethoxy)biphenyl-4-yl]-3,6-dihydro-2H-1,3,4-oxadiazin-2-one], for which the IC50 was found to be 13 nM in the data set with IGR37 cells; 13 nM in the data set with SK-MEL-3 cells; 250 nM at human full length PDE3B; 225 nM on human full length PDE3A; 6 nM in the data set on HeLa cells. Besides, the Clblood in data set [1] was 4.5 mL/min/kg. In addition, the Fmax in data set [1] is on record as 80%.
On to `C[C@@H]1OC(=O)NN=C1c1cc(Cl)c(N2CCOCC2)c(C(F)(F)F)c1` [Example 121, (6S)-5-(-[(3-Chloro-4-(morpholin-4-yl)-5-(trifluoromethyl)phenyl)-)]-6-methyl-3,6-dihydro-2H-1,3,4-oxadiazin-2-one], for which the IC50 with IGR37 cells turned out to be 12 nM; in the data set with SK-MEL-3 cells, 10 nM; at human full length PDE3B it was 299 nM; against human full length PDE3A, 150 nM; in the data set with HeLa cells, 5 nM. Also, the Clblood in data set [1] is 2.17 mL/min/kg. The Fmax in data set [1] is listed as 90%.
`C[C@@H]1OC(=O)NN=C1c1ccc(-c2ccncc2)c(C(F)(F)F)c1` [Example 166, (6S)-6-Methyl-5-[4-(pyridin-4-yl)-3-(trifluoromethyl)phenyl]-3,6-dihydro-2H-1,3,4-oxadiazin-2-one]: the IC50 with IGR37 cells was determined as 1 nM; with SK-MEL-3 cells, 1 nM; against human full length PDE3B, 42 nM; at human full length PDE3A, 69 nM; with HeLa cells, 1 nM.
As for `C[C@@H]1OC(=O)NN=C1c1ccc(-c2ccc(O)cc2)c(C(F)(F)F)c1` [Example 174, (6S)-5-[4′-Hydroxy-2-(trifluoromethyl)[1,1′-biphenyl]-4-yl]-6-methyl-3,6-dihydro-2H-1,3,4-oxadiazin-2-one], the IC50 in the data set with IGR37 cells was 1 nM; with SK-MEL-3 cells it was 1 nM; on human full length PDE3B, 16 nM; at human full length PDE3A it was 27 nM; in the data set on HeLa cells, 1 nM.
Turning to `C[C@@H]1OC(=O)NN=C1c1ccc(CN2CCOCC2)c(C(F)(F)F)c1` [Example 196, (6S)-6-Methyl-5-{4-[(morpholin-4-yl)methyl]-3-(trifluoromethyl)phenyl}-3,6-dihydro-2H-1,3,4-oxadiazin-2-one], the IC50 with IGR37 cells amounted to 33 nM; in the data set with SK-MEL-3 cells, 31 nM; against human full length PDE3B, 790 nM; at human full length PDE3A, 810 nM; in the data set with HeLa cells it was 15 nM.
With `O=C1NN=C(c2ccc(NCc3cnccn3)c(C(F)(F)F)c2)CO1` [Example 226, 5-[4-{[(Pyrazin-2-yl)methyl]amino}-3-(trifluoromethyl)phenyl]-3,6-dihydro-2H-1,3,4-oxadiazin-2-one], the IC50 with IGR37 cells amounted to 2 nM; in the data set with SK-MEL-3 cells, 2 nM; at human full length PDE3B it was 187 nM; on human full length PDE3A it was 128 nM; in the data set with HeLa cells it was 1 nM.
With `O=C1NN=C(c2ccc(N3CCC(F)(F)CC3)c(C(F)(F)F)c2)CO1` [Example 232, 5-[4-(4,4-Difluoropiperidin-1-yl)-3-(trifluoromethyl)phenyl]-3,6-dihydro-2H-1,3,4-oxadiazin-2-one], the IC50 with IGR37 cells came out at 4 nM; with SK-MEL-3 cells it was 5 nM; in the data set with HeLa cells, 2 nM.
Consider `N#CC1CCN(c2ccc(C3=NNC(=O)OC3)cc2C(F)(F)F)CC1` [Example 239, 1-[4-(2-Oxo-3,6-dihydro-2H-1,3,4-oxadiazin-5-yl)-2-(trifluoromethyl)phenyl]piperidine-4-carbonitrile], for which the IC50 worked out at 1 nM in the data set on IGR37 cells; 1 nM with SK-MEL-3 cells; 26 nM on human full length PDE3B; 27 nM against human full length PDE3A; 0.3 nM in the data set on HeLa cells.
With `CC1(C#N)CN(c2ccc(C3=NNC(=O)OC3)cc2C(F)(F)F)C1` [Example 251, 3-Methyl-1-[4-(2-oxo-3,6-dihydro-2H-1,3,4-oxadiazin-5-yl)-2-(trifluoromethyl)phenyl]azetidine-3-carbonitrile], the IC50 with IGR37 cells amounted to 4 nM; in the data set on SK-MEL-3 cells, 5 nM; at human full length PDE3B, 97 nM; against human full length PDE3A, 61 nM; in the data set on HeLa cells, 2 nM.
With `CCC1(O)CCN(c2ccc(C3=NNC(=O)OC3)cc2C(F)(F)F)CC1` [Example 253, 5-[4-(4-Ethyl-4-hydroxypiperidin-1-yl)-3-(trifluoromethyl)phenyl]-3,6-dihydro-2H-1,3,4-oxadiazin-2-one], the IC50 in the data set with IGR37 cells is 5 nM; with SK-MEL-3 cells, 40 nM; against human full length PDE3B, 155 nM; on human full length PDE3A, 190 nM; with HeLa cells, 1 nM.
Regarding `C[C@@H]1OC(=O)NN=C1c1ccc(-n2cnc(C(F)(F)F)c2)c(C(F)(F)F)c1` [Example 266, (6S)-6-Methyl-5-{3-(trifluoromethyl)-4-[4-(trifluoromethyl)-1H-imidazol-1-yl]phenyl}-3,6-dihydro-2H-1,3,4-oxadiazin-2-one], the half-inhibitory concentration (IC50) is 65 nM in the data set on IGR37 cells; 35 nM with SK-MEL-3 cells; 930 nM against human full length PDE3B; more than 1000 nM against human full length PDE3A; 19 nM in the data set on HeLa cells.
In the case of `CNc1ccc(C2=NNC(=O)OC2)cc1C(F)(F)F` [Example 276, 5-[4-(Methylamino)-3-(trifluoromethyl)phenyl]-3,6-dihydro-2H-1,3,4-oxadiazin-2-one], the IC50 in the data set on IGR37 cells is 50 nM; in the data set on SK-MEL-3 cells it was 49 nM; against human full length PDE3B, 240 nM; against human full length PDE3A, 79 nM; with HeLa cells, 27 nM.
As to `C[C@@H]1OC(=O)NN=C1c1ccc(N2CC(F)(F)C2)c(C(F)(F)F)c1` [Example 279, (6S)-5-[4-(3,3-Difluoroazetidin-1-yl)-3-(trifluoromethyl)phenyl]-6-methyl-3,6-dihydro-2H-1,3,4-oxadiazin-2-one], the IC50 was 2 nM in the data set on IGR37 cells, 2 nM with SK-MEL-3 cells and 1 nM with HeLa cells.
On to `C[C@@H]1OC(=O)NN=C1c1ccc(N2CC(C)(O)C2)c(C(F)(F)F)c1` [Example 280, (6S)-5-[4-(3-Hydroxy-3-methylazetidin-1-yl)-3-(trifluoromethyl)phenyl]-6-methyl-3,6-dihydro-2H-1,3,4-oxadiazin-2-one], for which the IC50 in the data set with IGR37 cells stood at 0.4 nM; with SK-MEL-3 cells it was 0.4 nM; with HeLa cells, 0.1 nM.
